ChEMBL document CHEMBL2311294, “Design, synthesis and bioevalution of novel benzamides derivatives as HDAC inhibitors” (Bioorg Med Chem Lett, 2013)

Columns and labels:
[1] = AUClast in Sprague-Dawley rat at 25 mg/kg, po; conditions: plasma
[2] = tested on: HCT-116; assay: cells; conditions: Homo sapiens, HCT-116, 72 h
[3] = tested on: MCF7; assay: Ratio of MGCD0103 IC50 to compound IC50 for human MCF7 cells; format: functional
[4] = tested on: A549; assay: Ratio of MGCD0103 IC50 to compound IC50 for human A549 cells; format: functional
[5] = Oral bioavailability in Sprague-Dawley rat at 25 mg/kg; format: ADME, organism-based; conditions: in vivo
[6] = target: Histone deacetylase 1 (Homo sapiens, UniProt Q13547); assay: Inhibition of HDAC1 (unknown origin)
Chain of Histone deacetylase 1 (Q13547 whole entry): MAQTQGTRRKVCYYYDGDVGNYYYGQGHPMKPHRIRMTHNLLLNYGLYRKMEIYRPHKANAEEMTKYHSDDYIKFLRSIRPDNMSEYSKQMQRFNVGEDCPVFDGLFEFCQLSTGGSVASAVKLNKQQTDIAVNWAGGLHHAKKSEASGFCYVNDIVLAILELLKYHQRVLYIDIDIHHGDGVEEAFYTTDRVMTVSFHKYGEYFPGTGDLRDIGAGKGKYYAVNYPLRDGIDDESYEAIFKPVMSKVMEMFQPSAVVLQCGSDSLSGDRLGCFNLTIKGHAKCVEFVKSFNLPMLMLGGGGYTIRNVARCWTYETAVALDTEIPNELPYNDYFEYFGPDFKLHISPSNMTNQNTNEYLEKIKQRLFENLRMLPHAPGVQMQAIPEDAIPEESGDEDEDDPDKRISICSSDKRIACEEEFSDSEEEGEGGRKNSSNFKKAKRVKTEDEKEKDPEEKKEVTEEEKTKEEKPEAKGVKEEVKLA

[7] = Terminal half life in Sprague-Dawley rat at 5 mg/kg, iv; format: ADME, organism-based; design: dose 5 mg/kg, route intravenous; conditions: in vivo, read-out: beta t1/2 (converted)
[8] = Terminal half life in Sprague-Dawley rat at 25 mg/kg, po; format: ADME, organism-based; design: dose 25 mg/kg, route oral; conditions: in vivo, read-out: beta t1/2 (converted)
[9] = AUC infinity in Sprague-Dawley rat at 25 mg/kg, po; format: ADME, organism-based; design: time infinity, dose 25 mg/kg, route oral; conditions: plasma
[10] = tested on: MCF7; assay: cells; conditions: Homo sapiens, MCF7, 72 h
Description: Cytotoxicity against human MCF7 cells after 72 hrs by MTT assay

[11] = Tmax in Sprague-Dawley rat at 25 mg/kg, po; format: ADME, organism-based; design: dose 25 mg/kg, route oral; conditions: in vivo
[12] = tested on: A549; assay: cells; conditions: Homo sapiens, A549, 72 h
Description: Cytotoxicity against human A549 cells after 72 hrs by MTT assay

AUC(0-t) [1] [ng·h/mL] | IC50 [2] [nM] | bioavailability [5] [%] | IC50 [6] [nM] | half-life [7] [h] | half-life [8] [h] | AUC(0-inf) [9] [ng·h/mL] | IC50 [10] [nM] | Tmax [11] [min] | IC50 [12] [nM] | SMILES | Ratio IC50 [3] | Ratio IC50 [4]
 | 203 |  | 108 |  |  |  | 2090 |  | 439 | Cc1nc2ccccn2c1-c1ccnc(NCc2ccc(C(=O)Nc3ccccc3N)cc2)n1 |  | 
 | 244 |  | 135 |  |  |  | 2400 |  | 649 | Cc1nc2ccccn2c1-c1ccnc(NCc2ccc(C(=O)Nc3ccc(F)cc3N)cc2)n1 |  | 
 | 301 |  | 125 |  |  |  | 2360 |  | 501 | Cc1nc2ccc(Br)cn2c1-c1ccnc(NCc2ccc(C(=O)Nc3ccccc3N)cc2)n1 |  | 
 | 270 |  | 97 |  |  |  | 1000 |  | 176 | Cc1nc2ccccn2c1-c1ccnc(NCc2ccc(C(=O)Nc3cc(F)ccc3N)cc2)n1 |  | 

More lines, now with the values behind:

SMILES | AUC(0-t) [1] [ng·h/mL] | IC50 [2] [nM] | bioavailability [5] [%] | IC50 [6] [nM] | half-life [7] [h] | half-life [8] [h] | AUC(0-inf) [9] [ng·h/mL] | IC50 [10] [nM] | Tmax [11] [min] | IC50 [12] [nM] | Ratio IC50 [3] | Ratio IC50 [4]
Nc1ccccc1NC(=O)c1ccc(CNc2nccc(-c3cnc4ccccn34)n2)cc1 | 71900 | 82 | 81 | 53 | 1.73 | 4.58 | 72300 | 661 | 4.98 | 110 | 7 | 11.6
Cc1nc2ccccn2c1-c1ccnc(NCCc2ccc(C(=O)Nc3ccccc3N)cc2)n1 |  | 304 |  | 131 |  |  |  | 4120 |  | 851 |  | 
Cc1nc2ncccn2c1-c1ccnc(NCc2ccc(C(=O)Nc3ccccc3N)cc2)n1 |  | 189 |  | 127 |  |  |  | 4110 |  | 857 |  | 
Nc1ccccc1NC(=O)c1ccc(CNc2nccc(-c3cnc4cnccn34)n2)cc1 |  | 214 |  | 110 |  |  |  | 2180 |  | 509 |  | 
Cc1nc2cnccn2c1-c1ccnc(NCc2ccc(C(=O)Nc3ccccc3N)cc2)n1 |  | 264 |  | 97 |  |  |  | 3740 |  | 694 |  | 
Nc1ccccc1NC(=O)c1ccc(CNc2nccc(-c3cnc4ncccn34)n2)cc1 |  | 183 |  | 35 |  |  |  | 856 |  | 427 |  | 
Nc1ccccc1NC(=O)c1ccc(CCNc2nccc(-c3cnc4ncccn34)n2)cc1 |  | 256 |  | 154 |  |  |  | 1720 |  | 724 |  | 
